Measurements as given in patent US20120015056A1, “COMPOSITION COMPRISING EXTRACTS OR FRACTIONS OF SPECIFIC PLANTS, USE THEREOF AND PROCESS FOR PREPARING THE EXTRACTS” (priority 2010, published 2012).

Columns and labels:
Type in all cases: cell-based
[1] = tested on: HepG2 (liver cancer); assay: MTT assay, viability of HepG2 at 500 nm; parameters: value of the treated group, Mean value: unit not given here
Method: (§1) Similarly, MTT assay was performed for lung cancer cell line A549 and liver cancer cell line HepG2. But, MTT solutions were added instead of XTT solutions; as a culture medium, RPMI1640 with L-glutamine (300 mg/L), 25 mM HEPES and 25 mM NaHCO3 90% and heat-inactivated fetal bovine serum (FBS) 10% was used for A549, and minimum essential medium, 25 mM HEPES and 25 mM NaHCO3 90% and heat-inactivated fetal bovine serum (FBS) 10% was used for HepG2; and MTT values were measured at 1 d, 2 d, 3 d and 4 d, respectively.
(§2) In the following, the values for the composition of the invention indicate the mean value of values obtained using the extracts of the Examples 1 to 3.
The following Table 7 and FIG. 12 show the value of the treated group determined in cell line HepG2.

[2] = tested on: A549 (lung cancer); assay: MTT assay, viability of A549 at 500 nm; parameters: value of the treated group, Mean value: unit not given here
Method: as §1, §2
The following Table 6 and FIG. 11 show the value of the treated group determined in cell line A549.

[3] = tested on: MDA-MB-231 (breast cancer); assay: XTT assay, viability of MDA-MB-231 at 450 nm; parameters: key to value of [the treated group−the blank group], Mean value: absorbance at 450 nm, treated minus blank
Method: (§3) Each of 5×10^3 breast cancer cells MDA-MB-231 and TTU-1 were seeded in a 96-well flat-bottomed microplate, and cultured in CO2 incubator. Cells were seeded in a 96-well tissue culture plate at a density of 10,000 cells for normal cells and 5,000 cells for cancer cells. DMEM plus 10% fetal bovine serum was used as a culture medium. At 24 hours after seeding, the extracts obtained in the Examples 1 to 3 were added to each well. At 12 hours after added the extracts, XTT solutions were added and then the cells were incubated for 2 hours. After that, absorbance value were measured using microplate spectrophotometer at a wavelength of 450 nm. In addition, Annexin-V/PI-stained MDA-MB-231 and TTU-1 cells were photographed and observed.
as §2
The following Table 4 and FIG. 9 show the value of [the treated group−the blank group] determined in cell line MDA-MB-231.

[4] = tested on: TTU-1 (breast cancer); assay: XTT assay, viability of TTU-1 at 450 nm
Method: as §3, with “[…] […]” for “At 24 hours after seeding, the extracts obtained in the Examples 1 to 3 were added to each well. At 12 hours after added the extracts, XTT solutions were added and then the cells were incubated for 2 hours.”

## O=c1[nH]cc(F)c(=O)[nH]1 [Example 5-FU, 5-FU]
[1]; 1,000 ppm, 24 h
  value of the treated group, Mean value: 2.867
[1]; 1,000 ppm, 48 h
  value of the treated group, Mean value: 1.998
[1]; 1,000 ppm, 72 h
  value of the treated group, Mean value: 1.853
[1]; 1,000 ppm, 96 h
  value of the treated group, Mean value: 0.938
[2]; 1,000 ppm, 24 h
  value of the treated group, Mean value: 2.298
[2]; 1,000 ppm, 48 h
  value of the treated group, Mean value: 1.697
[2]; 1,000 ppm, 72 h
  value of the treated group, Mean value: 0.863
[2]; 1,000 ppm, 96 h
  value of the treated group, Mean value: 0.42

## CC(=O)O[C@H]1C(=O)[C@@]2(C)[C@H]([C@H](OC(=O)c3ccccc3)[C@]3(O)C[C@H](OC(=O)[C@H](O)[C@@H](NC(=O)c4ccccc4)c4ccccc4)C(C)=C1C3(C)C)[C@]1(OC(C)=O)CO[C@@H]1C[C@@H]2O [Taxol]
[1]
  course of the value as time goes by (FIG. 12): increasing
[1]; 35.1 uM/ml, 24 h
  value of the treated group, Mean value: 2.73
[1]; 35.1 uM/ml, 48 h
  value of the treated group, Mean value: 2.604
[1]; 35.1 uM/ml, 72 h
  value of the treated group, Mean value: 2.506
[1]; 35.1 uM/ml, 96 h
  value of the treated group, Mean value: 2.546
[1]; 70.2 uM/ml, 24 h
  value of the treated group, Mean value: 2.71
[1]; 70.2 uM/ml, 48 h
  value of the treated group, Mean value: 2.595
[1]; 70.2 uM/ml, 72 h
  value of the treated group, Mean value: 2.466
[1]; 70.2 uM/ml, 96 h
  value of the treated group, Mean value: 2.389
[3]
  course of the value as time goes by (FIG. 9): increasing
[3]; 1.2 × 10^−7M, 12 h
  value of [the treated group−the blank group], Mean value: 0.074
[3]; 1.2 × 10^−7M, 84 h
  value of [the treated group−the blank group], Mean value: 0.107
[3]; 1.2 × 10^−7M, 108 h
  value of [the treated group−the blank group], Mean value: −0.006
[3]; 1.2 × 10^−7M, 132 h
  value of [the treated group−the blank group], Mean value: 0.034
[3]; 2.5 × 10^−6M, 12 h
  value of [the treated group−the blank group], Mean value: 0.076
[3]; 2.5 × 10^−6M, 84 h
  value of [the treated group−the blank group], Mean value: 0.085
[3]; 2.5 × 10^−6M, 108 h
  value of [the treated group−the blank group], Mean value: 0.024
[3]; 2.5 × 10^−6M, 132 h
  value of [the treated group−the blank group], Mean value: −0.007
[4]
  course of the value as time goes by (FIG. 10): increasing
[4]; 1.2 × 10^−7M, 12 h
  value of [the treated group−the blank group], Mean value: 0.079
[4]; 1.2 × 10^−7M, 84 h
  value of [the treated group−the blank group], Mean value: 0.123
[4]; 1.2 × 10^−7M, 108 h
  value of [the treated group−the blank group], Mean value: 0.012
[4]; 1.2 × 10^−7M, 132 h
  value of [the treated group−the blank group], Mean value: 0.084
[4]; 2.5 × 10^−6M, 12 h
  value of [the treated group−the blank group], Mean value: 0.067
[4]; 2.5 × 10^−6M, 108 h
  value of [the treated group−the blank group], Mean value: −0.002
[4]; 2.5 × 10^−6M, 132 h
  value of [the treated group−the blank group], Mean value: 0.035
[2]
  course of the value as time goes by (FIG. 11): increasing
[2]; 35.1 uM/ml, 24 h
  value of the treated group, Mean value: 2.438
[2]; 35.1 uM/ml, 48 h
  value of the treated group, Mean value: 2.753
[2]; 35.1 uM/ml, 72 h
  value of the treated group, Mean value: 2.6
[2]; 35.1 uM/ml, 96 h
  value of the treated group, Mean value: 2.934
[2]; 70.2 uM/ml, 24 h
  value of the treated group, Mean value: 2.488
[2]; 70.2 uM/ml, 48 h
  value of the treated group, Mean value: 2.911
[2]; 70.2 uM/ml, 72 h
  value of the treated group, Mean value: 2.691
[2]; 70.2 uM/ml, 96 h
  value of the treated group, Mean value: 2.98
